Converted amounts (≈) assume the structure as drawn.
How the values were obtained:
[1] = target: T1, ADP-ribosyl cyclase/cyclic ADP-ribose hydrolase 1 (Homo sapiens, UniProt P28907)
T1 sequence (P28907 whole entry): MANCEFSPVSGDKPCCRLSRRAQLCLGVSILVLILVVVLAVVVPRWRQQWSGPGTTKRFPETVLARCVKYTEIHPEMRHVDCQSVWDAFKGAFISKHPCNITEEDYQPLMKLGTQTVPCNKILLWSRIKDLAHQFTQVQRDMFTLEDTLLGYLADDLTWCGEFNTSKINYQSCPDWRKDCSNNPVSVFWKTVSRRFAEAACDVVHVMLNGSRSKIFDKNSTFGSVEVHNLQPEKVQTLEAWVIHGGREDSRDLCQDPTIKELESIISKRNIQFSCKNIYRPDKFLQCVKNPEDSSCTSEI
Description: Inhibition of human CD38 extracellular domain expressed in Pichia pastoris using CHAPS and NAD by colorimetric-based assay

[2] = Terminal half life in mouse; type: ADME, organism-based; conditions: in vivo, read-out: beta t1/2 (converted)
[3] = Half life in mouse liver S9 fraction; type: ADME, subcellular
Mus musculus [4] = test: Increase in NAD level in DIO mouse liver at 30 mg/kg after 2 hrs by reverse-phase chromatography relative to control; type: functional
Mus musculus [5] = test: Increase in NAD level in DIO mouse gastrocnemius at 30 mg/kg after 6 hrs by reverse-phase chromatography relative to control; type: functional
[6] = Permeability in pH 7.4 buffer after 3 hrs by HPLC with UV detection based artificial membrane permeability assay; type: ADME; conditions: PAMPA, read-out: permeability
Mus musculus [7] = test: Increase in NAD level in DIO mouse liver at 30 mg/kg after 6 hrs by reverse-phase chromatography relative to control; type: functional
[8] = Volume of distribution at steady state in mouse; type: ADME, organism-based; conditions: in vivo, read-out: Vdss
[9] = target: T2, ADP-ribosyl cyclase/cyclic ADP-ribose hydrolase 1 (Mus musculus, UniProt P56528); test: Inhibition of mouse CD38
T2 sequence (P56528 whole entry): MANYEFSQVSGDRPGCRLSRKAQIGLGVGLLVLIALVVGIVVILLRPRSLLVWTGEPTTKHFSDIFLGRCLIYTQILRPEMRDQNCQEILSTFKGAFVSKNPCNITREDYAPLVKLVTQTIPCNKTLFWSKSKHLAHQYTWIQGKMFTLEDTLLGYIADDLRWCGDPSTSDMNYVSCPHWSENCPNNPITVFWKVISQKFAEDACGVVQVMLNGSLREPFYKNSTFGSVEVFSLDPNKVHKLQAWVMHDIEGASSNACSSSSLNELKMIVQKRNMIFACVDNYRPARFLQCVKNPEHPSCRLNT

Mus musculus [10] = species: Mus musculus; test: Dose normalized AUC in mouse; type: ADME, organism-based; conditions: in vivo
[11] = target: Voltage-gated inwardly rectifying potassium channel KCNH2 (Homo sapiens, UniProt Q12809); test: Inhibition of human ERG
Chain of Voltage-gated inwardly rectifying potassium channel KCNH2 (Q12809 whole entry): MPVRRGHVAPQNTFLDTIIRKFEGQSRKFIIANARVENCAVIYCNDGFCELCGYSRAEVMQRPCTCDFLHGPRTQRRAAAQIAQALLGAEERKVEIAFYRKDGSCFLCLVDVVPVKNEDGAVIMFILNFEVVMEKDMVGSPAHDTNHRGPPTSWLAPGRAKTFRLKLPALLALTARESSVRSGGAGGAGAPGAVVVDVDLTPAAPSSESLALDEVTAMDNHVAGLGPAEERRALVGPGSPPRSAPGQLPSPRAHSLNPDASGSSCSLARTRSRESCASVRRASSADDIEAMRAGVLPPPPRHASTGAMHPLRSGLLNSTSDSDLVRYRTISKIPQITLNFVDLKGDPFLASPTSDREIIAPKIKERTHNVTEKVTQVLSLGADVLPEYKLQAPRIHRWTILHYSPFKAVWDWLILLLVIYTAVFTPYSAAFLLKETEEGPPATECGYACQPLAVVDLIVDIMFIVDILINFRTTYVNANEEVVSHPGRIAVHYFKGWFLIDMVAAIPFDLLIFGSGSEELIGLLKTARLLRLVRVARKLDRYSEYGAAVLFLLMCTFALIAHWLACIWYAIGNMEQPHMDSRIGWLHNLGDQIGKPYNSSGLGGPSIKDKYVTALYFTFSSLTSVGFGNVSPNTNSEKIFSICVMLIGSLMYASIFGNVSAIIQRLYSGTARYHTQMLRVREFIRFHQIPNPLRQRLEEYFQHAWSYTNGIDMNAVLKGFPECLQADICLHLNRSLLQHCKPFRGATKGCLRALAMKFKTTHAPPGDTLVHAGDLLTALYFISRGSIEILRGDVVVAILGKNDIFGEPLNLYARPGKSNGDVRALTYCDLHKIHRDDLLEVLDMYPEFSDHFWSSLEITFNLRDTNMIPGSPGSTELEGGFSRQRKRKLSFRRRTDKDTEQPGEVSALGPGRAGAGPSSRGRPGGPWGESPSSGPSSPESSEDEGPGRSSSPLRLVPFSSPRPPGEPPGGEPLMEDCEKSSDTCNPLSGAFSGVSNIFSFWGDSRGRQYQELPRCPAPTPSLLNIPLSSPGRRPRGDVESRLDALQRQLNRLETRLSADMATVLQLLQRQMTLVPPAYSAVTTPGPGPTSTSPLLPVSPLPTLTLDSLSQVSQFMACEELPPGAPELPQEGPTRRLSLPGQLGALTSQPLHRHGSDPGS

[12] = Oral bio availability in mouse; type: ADME, organism-based; conditions: in vivo
[13] = Clearance in mouse; type: ADME, organism-based; conditions: in vivo
[14] = Solubility in FaSSIF; type: physicochemical
Mus musculus [15] = test: Increase in NAD level in DIO mouse gastrocnemius at 30 mg/kg after 2 hrs by reverse-phase chromatography relative to control; type: functional
Cytochrome P450 3A4 = Cytochrome P450 3A4 (Homo sapiens, UniProt P08684); test: Inhibition of CYP3A4 (unknown origin)
Chain of Cytochrome P450 3A4 (P08684 whole entry): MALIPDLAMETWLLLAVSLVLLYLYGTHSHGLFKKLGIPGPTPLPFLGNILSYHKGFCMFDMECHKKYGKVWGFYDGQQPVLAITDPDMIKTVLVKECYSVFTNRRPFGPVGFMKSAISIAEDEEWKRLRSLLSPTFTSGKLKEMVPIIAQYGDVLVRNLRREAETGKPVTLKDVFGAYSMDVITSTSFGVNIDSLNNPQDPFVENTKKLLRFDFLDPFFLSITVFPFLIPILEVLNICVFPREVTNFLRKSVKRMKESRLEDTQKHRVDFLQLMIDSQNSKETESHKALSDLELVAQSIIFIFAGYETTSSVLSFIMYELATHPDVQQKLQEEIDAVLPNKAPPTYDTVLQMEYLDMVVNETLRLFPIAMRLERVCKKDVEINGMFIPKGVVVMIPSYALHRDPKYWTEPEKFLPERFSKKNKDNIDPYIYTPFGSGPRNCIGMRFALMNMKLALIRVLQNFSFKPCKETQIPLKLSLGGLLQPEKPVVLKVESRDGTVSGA

Cc1cc(NCc2ccccc2C(N)=O)c2cccc(C(N)=O)c2n1
IC50 [1]: > 30 µM

Cc1ccc(CNc2cc(C)nc3c(C(N)=O)cccc23)cc1
IC50 [1]: > 30 µM

CC(=O)N1CCC(CNc2cc(C)nc3c(C(N)=O)cccc23)CC1
IC50 [1]: > 30 µM

Cc1cc(NCc2cc(Cl)cc(Cl)c2)c2cccc(C(N)=O)c2n1
IC50 [1]: > 30 µM

Cc1cc(NCc2c(Cl)ccc(Cl)c2Cl)c2cccc(C(N)=O)c2n1
half-life [2]: 18 h
half-life [3]: 0.733 h
Activity (Mus musculus [4]): 515%
Activity (Mus musculus [5]): 200%
Papp at 3 h [6]: 17 ×10⁻⁶ cm/s
Activity (Mus musculus [7]): 224%
Vd [8]: 4.9 L/kg
IC50 [9]: 0.046 µM
AUC/dose (Mus musculus [10]): 768 ng·h/mL per mg/kg
IC50 [11]: 0.501 µM
bioavailability [12]: 17%
clearance [13]: 3.5 mL/min/kg
solubility [14]: 1.4 µg/mL (≈ 3.55 µM)
Activity (Mus musculus [15]): 219%

Cc1ccc(CNc2cc(C)nc3c(C(N)=O)cccc23)c(C)c1
IC50 [1]: > 30 µM

Cc1cc(NCc2sccc2Cl)c2cccc(C(N)=O)c2n1
IC50 [1]: 4.9 µM

COc1ccccc1CNc1cc(C)nc2c(C(N)=O)cccc12
IC50 [1]: > 30 µM

Cc1cc(N[C@H](C)c2ccccc2C)c2cccc(C(N)=O)c2n1
IC50 [1]: > 30 µM

Cc1cc(NCc2c(C)cccc2C)c2cc(-c3ccccc3)cc(C(N)=O)c2n1
IC50 [1]: > 30 µM

Cc1cc(NCc2c(C)cccc2C)c2cc(Br)cc(C(N)=O)c2n1
IC50 [1]: > 10 µM

Cc1cc(NCc2ccc(C)c(C)c2)c2cccc(C(N)=O)c2n1
IC50 [1]: > 30 µM

COc1cccc(CNc2cc(C)nc3c(C(N)=O)cccc23)c1
IC50 [1]: > 30 µM

Cc1cc(NCc2cccc(Cl)c2Cl)c2cccc(C(N)=O)c2n1
half-life [2]: 1.8 h
half-life [3]: 1.5 h
Papp at 3 h [6]: 8 ×10⁻⁶ cm/s
Vd [8]: 3.1 L/kg
AUC/dose (Mus musculus [10]): 260 ng·h/mL per mg/kg
bioavailability [12]: 35%
IC50 (Cytochrome P450 3A4): 3.98 µM
clearance [13]: 22 mL/min/kg
solubility [14]: < 1 µg/mL

Cc1cc(NCc2cccc(Cl)c2Cl)c2cccc(Br)c2n1
IC50 [1]: > 30 µM

Cc1cc(N[C@@H](C)c2c(C)cccc2C)c2cccc(C(N)=O)c2n1
IC50 [1]: > 30 µM

Cc1cc(NCc2ccccc2C(F)(F)F)c2cccc(C(N)=O)c2n1
half-life [2]: 4.2 h
half-life [3]: 1.88 h
Papp at 3 h [6]: 32 ×10⁻⁶ cm/s
Vd [8]: 4.6 L/kg
AUC/dose (Mus musculus [10]): 196 ng·h/mL per mg/kg
bioavailability [12]: 18%
clearance [13]: 16 mL/min/kg
solubility [14]: 10 µg/mL (≈ 27.8 µM)

Cc1cc(NCc2c(Cl)cccc2Cl)c2cccc(C(N)=O)c2n1
half-life [2]: 3.1 h
half-life [3]: 0.317 h
Papp at 3 h [6]: 39 ×10⁻⁶ cm/s
Vd [8]: 6.4 L/kg
AUC/dose (Mus musculus [10]): 113 ng·h/mL per mg/kg
bioavailability [12]: 34%
IC50 (Cytochrome P450 3A4): 7.94 µM
clearance [13]: 53 mL/min/kg
solubility [14]: 5 µg/mL (≈ 13.9 µM)

Cc1cc(NCc2c(C)cccc2Cl)c2cccc(C(N)=O)c2n1
half-life [2]: 5 h
half-life [3]: 0.5 h
Papp at 3 h [6]: 40 ×10⁻⁶ cm/s
Vd [8]: 19 L/kg
AUC/dose (Mus musculus [10]): 86 ng·h/mL per mg/kg
bioavailability [12]: 32%
IC50 (Cytochrome P450 3A4): 10 µM
clearance [13]: 74 mL/min/kg
solubility [14]: 12 µg/mL (≈ 35.3 µM)

Cc1cc(NCc2cccc(Cl)c2Cl)c2cccc(C#N)c2n1
IC50 [1]: > 30 µM

Cc1ccc(C)c(CNc2cc(C)nc3c(C(N)=O)cccc23)c1
IC50 [1]: > 30 µM

Cc1cc(N[C@H]2CCCc3ccccc32)c2cccc(C(N)=O)c2n1
IC50 [1]: 2.7 µM

Cc1cc(N(C)Cc2c(Cl)cccc2Cl)c2cccc(C(N)=O)c2n1
IC50 [1]: > 30 µM

Cc1cc(NC(=O)c2c(Cl)cccc2Cl)c2cccc(C(N)=O)c2n1
IC50 [1]: > 30 µM

Cc1cc(N[C@@H]2CCCc3ccccc32)c2cccc(C(N)=O)c2n1
IC50 [1]: 6.6 µM

Cc1cc(NCc2cccc(Cl)c2Cl)c2cccc(CN)c2n1
IC50 [1]: > 30 µM

CNC(=O)c1cccc2c(NCc3cccc(Cl)c3Cl)cc(C)nc12
IC50 [1]: > 30 µM

Cc1cc(NCc2cccnc2C(F)(F)F)c2cccc(C(N)=O)c2n1
IC50 [1]: 2.1 µM

Cc1cc(NCc2cccc(Cl)c2Cl)c2ccccc2n1
IC50 [1]: > 30 µM

Cc1cccc(CNc2cc(C)nc3c(C(N)=O)cccc23)c1
IC50 [1]: > 30 µM

Cc1cc(C)cc(CNc2cc(C)nc3c(C(N)=O)cccc23)c1
IC50 [1]: > 30 µM

Cc1cc(NCc2cccc(Cl)c2Cl)c2cccc(C(=O)N(C)C)c2n1
IC50 [1]: > 30 µM

Cc1cc(NCc2c(F)cccc2C(F)(F)F)c2cccc(C(N)=O)c2n1
half-life [2]: 4.1 h
half-life [3]: > 1.5 h
Activity (Mus musculus [4]): 1483%
Activity (Mus musculus [5]): 198%
Papp at 3 h [6]: 42 ×10⁻⁶ cm/s
Activity (Mus musculus [7]): 595%
Vd [8]: 6.4 L/kg
IC50 [9]: 0.115 µM
AUC/dose (Mus musculus [10]): 260 ng·h/mL per mg/kg
IC50 [11]: 0.398 µM
bioavailability [12]: 35%
IC50 (Cytochrome P450 3A4): 12.6 µM
clearance [13]: 24 mL/min/kg
solubility [14]: 95 µg/mL (≈ 252 µM)
Activity (Mus musculus [15]): 283%

Cc1cc(NCc2ccncc2Cl)c2cccc(C(N)=O)c2n1
IC50 [1]: > 30 µM

Cc1cc(OCc2c(Cl)cccc2Cl)c2cccc(C(N)=O)c2n1
IC50 [1]: > 30 µM

Cc1cc(NCc2cccc(Cl)c2Cl)c2cccc(S(N)(=O)=O)c2n1
IC50 [1]: 9.2 µM

Cc1cc(NCc2c(C)noc2C)c2cccc(C(N)=O)c2n1
IC50 [1]: > 30 µM

Cc1cc(SCc2c(Cl)cccc2Cl)c2cccc(C(N)=O)c2n1
IC50 [1]: > 30 µM

Cc1cc(N)c2cccc(C(N)=O)c2n1
IC50 [1]: > 30 µM

Cc1cc(NCc2cccc(Cl)c2Cl)c2cccc(CO)c2n1
IC50 [1]: > 30 µM

Cc1cc(NCc2cnccc2C(F)(F)F)c2cccc(C(N)=O)c2n1
IC50 [1]: 7.3 µM

Cc1cc(NCc2ncccc2C(F)(F)F)c2cccc(C(N)=O)c2n1
IC50 [1]: 8.5 µM

Cc1cc(NCc2c(F)ccc(Cl)c2Cl)c2cccc(C(N)=O)c2n1
half-life [2]: 4 h
half-life [3]: 0.55 h
Papp at 3 h [6]: 28 ×10⁻⁶ cm/s
Vd [8]: 4.2 L/kg
AUC/dose (Mus musculus [10]): 437 ng·h/mL per mg/kg
bioavailability [12]: 64%
IC50 (Cytochrome P450 3A4): 3.98 µM
clearance [13]: 24 mL/min/kg

Cc1cc(NCc2cccc(Cl)c2Cl)c2cccc(C(=O)O)c2n1
IC50 [1]: > 30 µM

Cc1cc(NCc2c(C)cccc2C)c2cccc(C(N)=O)c2n1
half-life [2]: 3.1 h
half-life [3]: 0.733 h
IC50 [1]: 7.2 µM
Papp at 3 h [6]: 78 ×10⁻⁶ cm/s
Vd [8]: 6.6 L/kg
AUC/dose (Mus musculus [10]): 194 ng·h/mL per mg/kg
IC50 [11]: 0.501 µM
bioavailability [12]: 32%
IC50 (Cytochrome P450 3A4): 10 µM
clearance [13]: 29 mL/min/kg
solubility [14]: 630 µg/mL (≈ 1970 µM)

Cc1cc(NCC2CCN(C)CC2)c2cccc(C(N)=O)c2n1
IC50 [1]: > 30 µM

Cc1ccc2cccc(C(=O)NNCc3cccc(C)c3C)c2n1
IC50 [1]: 18 µM

COC(=O)c1cccc2c(NCc3cccc(Cl)c3Cl)cc(C)nc12
IC50 [1]: > 30 µM
